Test results reported in patent EP1781807B1, “FLUORESCENCE-BASED KINETIC DETERMINATION OF TRANSGLUTAMINASE ACTIVITY” (N-Zyme BioTec GmbH, priority 2004, dated 2006).
Where a SMILES comes first, the peptide text is derived from it. [ ]: non-standard residue; d: D form. The star is where a group is joined. X1 = O=[N+]([O-])c1ccc(NCCCCCN*)c([N+](=O)[O-])c1; 2Abz = Nc1ccccc1C(=O)O; Ahx = NCCCCCC(=O)O

Legend:
Type in all cases: biochemical
FXIII = molecular target: T1, FXIII (Homo sapiens, UniProt P00488); experiment: Kinetic measurement of FXIII in plasma (Beispiel 1); settings: in Gegenwart von 5 mM Glycinethylester, otherwise identical conditions; 100 µl Citratplasma, 20 NIH Units Thrombin, 37°C, Exc. 310 nm, Em. 427 nm
T1 construct: Kinetische Messung von FXIII in Plasmen; from tissue; host or cells: plasma
T1 sequence (P00488 1-732): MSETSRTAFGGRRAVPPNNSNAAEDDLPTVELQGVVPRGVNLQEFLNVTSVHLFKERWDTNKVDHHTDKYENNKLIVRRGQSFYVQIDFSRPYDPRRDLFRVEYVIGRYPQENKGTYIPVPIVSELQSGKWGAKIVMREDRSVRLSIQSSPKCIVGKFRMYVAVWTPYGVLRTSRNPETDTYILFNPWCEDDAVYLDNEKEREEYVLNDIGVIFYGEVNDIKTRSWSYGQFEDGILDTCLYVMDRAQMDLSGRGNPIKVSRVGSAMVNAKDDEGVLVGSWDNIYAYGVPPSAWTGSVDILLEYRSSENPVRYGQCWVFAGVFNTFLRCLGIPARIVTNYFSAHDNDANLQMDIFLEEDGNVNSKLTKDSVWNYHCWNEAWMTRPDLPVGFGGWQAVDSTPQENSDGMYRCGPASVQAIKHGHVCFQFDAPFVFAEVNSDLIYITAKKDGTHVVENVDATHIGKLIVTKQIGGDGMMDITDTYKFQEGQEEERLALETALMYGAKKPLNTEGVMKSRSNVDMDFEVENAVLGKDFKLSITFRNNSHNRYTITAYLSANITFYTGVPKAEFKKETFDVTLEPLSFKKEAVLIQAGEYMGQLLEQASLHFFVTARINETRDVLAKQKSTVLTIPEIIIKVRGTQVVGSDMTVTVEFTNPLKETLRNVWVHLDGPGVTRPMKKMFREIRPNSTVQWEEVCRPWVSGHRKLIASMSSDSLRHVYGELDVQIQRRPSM
Source text: Kinetische Messung von FXIII in Plasmen
Substratpeptid: Abz-Asn-Glu(CAD-DNP)-Glu-Gln-Val-Ser-Pro-Leu-Thr-Leu-Leu-Lys (2)
Die Substratsequenz Asn-Gln-Glu-Gln-Val-Ser-Pro-Leu-Thr-Leu-Leu-Lys ist einem natürlichen Substrat des FXIII entnommen und wurde bereits zur kinetischen Messungen von FXIII in der Literatur beschrieben (Kärpäti L. et al., Clin Chem., 46:12, 2000, 1946-55). Durch die erfindungsgemäße Modifikation dieses Peptides kann eine kinetische Messung in Plasmen durchgeführt werden (unterer Graph in Fig. 3). Die Messung wurde in diesem speziellen Fall wie folgt durchgeführt.

Faktor XIII [1] = molecular target: T2, Faktor XIII (Homo sapiens, UniProt P00488); experiment: Comparison of fluorescence-labelled transglutaminase peptide substrates, kinetic measurement (Beispiel 5); settings: 900 µl thrombin-containing 50 µM peptide solution + 100 µl Humanplasma
T2 construct: 100 µl humanem Plasma (durch Thrombin aktiviert); from tissue; host or cells: human plasma
T2 sequence (P00488 39-732): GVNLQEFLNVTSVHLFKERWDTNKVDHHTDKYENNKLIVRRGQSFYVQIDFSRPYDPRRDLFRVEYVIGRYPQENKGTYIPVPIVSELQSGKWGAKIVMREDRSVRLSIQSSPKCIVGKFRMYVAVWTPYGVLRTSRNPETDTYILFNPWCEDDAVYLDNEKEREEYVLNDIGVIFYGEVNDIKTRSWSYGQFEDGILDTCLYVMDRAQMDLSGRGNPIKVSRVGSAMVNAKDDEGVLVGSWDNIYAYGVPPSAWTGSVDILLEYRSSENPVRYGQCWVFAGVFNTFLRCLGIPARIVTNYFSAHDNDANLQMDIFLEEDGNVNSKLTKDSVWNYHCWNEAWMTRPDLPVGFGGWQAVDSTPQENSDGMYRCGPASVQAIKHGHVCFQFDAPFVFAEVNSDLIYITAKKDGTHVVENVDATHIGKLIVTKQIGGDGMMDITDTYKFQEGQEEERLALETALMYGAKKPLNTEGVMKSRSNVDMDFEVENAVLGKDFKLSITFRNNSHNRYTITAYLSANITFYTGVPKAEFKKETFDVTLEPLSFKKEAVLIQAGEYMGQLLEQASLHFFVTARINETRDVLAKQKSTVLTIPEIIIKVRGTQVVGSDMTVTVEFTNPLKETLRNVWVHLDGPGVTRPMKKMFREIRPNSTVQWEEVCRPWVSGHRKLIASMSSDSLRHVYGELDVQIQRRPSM
Protocol: Vergleich von Transglutaminasepeptidsubstraten
Für den Vergleich verschiedener mit fluoreszierenden Gruppen markierter Transglutaminasepeptidsubstrate wurden kinetische Messungen unter identischen Bedingungen durchgeführt. Dazu wurden zu 900 µl einer thrombinhaltigen 50 µM Lösung des Peptids 100 µl Humanplasma zugesetzt. Diese Bedingungen entsprechen denen, die bei heutzutage üblichen Faktor XIII - Messungen (wie bei dem Marktführer: Berichrom) zum Einsatz kommen. […] Auch die Verwendung von Abz als Fluorophor (Abz-Ahx-Glu(CAD-DNP)-Gln-Ile-Val, (Parameswaran et al.,
Um die Substrateigenschaften gegenüber den Substraten des Standes der Technik zu verbessern und somit klinisch relevante Messungen zu ermöglichen, wurde ausgehend von Verbindung 1 durch routinemäßiges Experimentieren das Peptidrückgrat so verändert, dass ein Substrat entstand, das durch FXIII schneller umgesetzt werden sollte (DNS-Ahx-Glu(CAD-DNP)-Glu-Gln-Val-Ser-Pro-Leu-Thr-Leu-Leu-Lys, 2).
Gegenüber dem Peptid, das in der Literatur (Kärpäti et al.) beschrieben wird, ist die Verbindung 2 um eine Aminosäure am N-Terminus verkürzt. Dahinter stand die Absicht, die im Stand der Technik bekannte und oben beschriebene fluorogene Teilstruktur zu erhalten. Es ist aber bekannt, dass gerade die Aminsäuren, die der Bindungsstelle von Enzymen direkt benachbart sind, besonders großen Einfluss auf die Substrateigenschaften von Peptiden, bzw. Proteinen haben. Deshalb wurde in einer weiteren Modifikation von Verbindung 1 die Verbindung 3 hergestellt. (DNS-Ahx-Asn-Glu(CAD-DNP)-Glu-Gln-Val-Ser-Pro-Leu-Thr-Leu-Leu-Lys, 3).
Beispielhaft wird dies im Vergleich in Fig. 6 anhand der Reaktion von 100 µl humanem Plasma (durch Thrombin aktiviert) und einer 50 µM Lösung des Peptides Abz-Asn-Glu(CAD-DNP)-Glu-Gln-Val-Ser-Pro-Leu-Thr-Leu-Leu-Lys (Verbindung 2)) gezeigt. Dem Vergleich der Strukturen und der Fluoreszenzdaten ist zu entnehmen, dass diese Wirkung auch für andere Transglutaminasen und andere Peptide Gültigkeit hat.

[2] = molecular target: T3, gereinigte rekombinante humane Transglutaminase 2 (Homo sapiens, UniProt P21980); experiment: Selectivity of measurement of different transglutaminases, 2. Ansatz (Beispiel 4); settings: substrate 50 µM, rhHis6TG2 0,25 µM, 6 % DMSO, Exc. 310 nm, Em. 427 nm, 20 min
T3 construct: His6
T3 sequence (P21980 1-687): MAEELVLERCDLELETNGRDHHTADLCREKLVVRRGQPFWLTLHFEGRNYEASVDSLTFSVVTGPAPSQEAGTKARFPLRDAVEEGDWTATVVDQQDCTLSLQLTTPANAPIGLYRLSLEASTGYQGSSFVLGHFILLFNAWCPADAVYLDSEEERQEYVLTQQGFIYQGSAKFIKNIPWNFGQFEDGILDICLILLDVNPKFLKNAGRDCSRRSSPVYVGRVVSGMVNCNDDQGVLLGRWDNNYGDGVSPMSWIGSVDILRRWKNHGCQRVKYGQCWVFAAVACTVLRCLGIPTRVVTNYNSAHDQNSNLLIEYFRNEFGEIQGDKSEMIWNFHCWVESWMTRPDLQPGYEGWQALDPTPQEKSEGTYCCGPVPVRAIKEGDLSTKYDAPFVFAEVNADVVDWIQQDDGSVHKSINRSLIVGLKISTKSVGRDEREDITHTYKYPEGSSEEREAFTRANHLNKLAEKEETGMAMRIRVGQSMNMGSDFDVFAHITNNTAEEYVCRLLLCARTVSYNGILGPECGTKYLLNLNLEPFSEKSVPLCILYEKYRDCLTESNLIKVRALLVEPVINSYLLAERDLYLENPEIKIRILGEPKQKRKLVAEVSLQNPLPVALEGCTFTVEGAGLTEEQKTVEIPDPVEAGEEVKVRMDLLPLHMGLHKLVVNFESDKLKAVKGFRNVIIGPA
Source text: (§1) Selektivität der Messungen verschiedener Transglutaminasen
2. Ansatz: Abz-Asn-Glu(CAD-DNP)-Glu-Gln-Val-Ser-Pro-Leu-Thr-Leu-Leu-Lys (2), Transglutaminase: gereinigte rekombinante humane Transglutaminase 2

Faktor XIII [3] = molecular target: T4, Faktor XIII (Homo sapiens, UniProt P00488); experiment: Selectivity of measurement of different transglutaminases, 1. Ansatz (Beispiel 4); settings: substrate 50 µM, 100 µl Citratplasma, 6 % DMSO, Exc. 310 nm, Em. 427 nm, 20 min
T4 construct: 100 µl Citratplasma; from tissue; host or cells: citrate plasma
T4 sequence (P00488 1-732): T1 sequence (P00488 1-732)
Source text: as §1
1. Ansatz: Substratpeptid: Abz-Ala-Pro-Glu(CAD-DNP)-Gln-Glu-Ala (3), Transglutaminase: Faktor XIII

| Molecule | Steigerung der Fluoreszenz (Faktor XIII [1]) | further results |
| --- | --- | --- |
| 2-Aminobenzoyl-L-asparaainyl-N^δ-[N-(2,4-dinitrophenyl)1-5-aminopentyl]-L-glutaminyl-L-glutamyl-L-glutaminyl-L-valinyl-L-serinyl-L-prolinyl-L-leucinyl-L-threoninyl-L-leucinyl-L-leucin-L-lysin [Verbindung 2] | wesentliche Verbesserung der Fluoreszenzsteigerung | Signal (Fluoreszenzänderung) (FXIII): Signal zusätzlich verstärkt; Anstieg der Fluoreszenz [2]: Ergebnis: kein Anstieg der Fluoreszenz |
| CC[C@H](C)[C@H](NC(=O)[C@H](CCC(N)=O)NC(=O)[C@H](CCC(=O)NCCCCCNc1ccc([N+](=O)[O-])cc1[N+](=O)[O-])NC(=O)CCCCCNC(=O)c1ccccc1N)C(=O)N[C@H](C(=O)O)C(C)C [Abz-Ahx-Glu(CAD-DNP)-Gln-Ile-Val] (H-[2Abz][Ahx]E(X1)QIV-OH) | keine messbare Steigerung der Fluoreszenz | – |
| C[C@H](NC(=O)[C@H](CCC(=O)O)NC(=O)[C@H](CCC(N)=O)NC(=O)[C@H](CCC(=O)NCCCCCNc1ccc([N+](=O)[O-])cc1[N+](=O)[O-])NC(=O)[C@@H]1CCCN1C(=O)[C@H](C)NC(=O)c1ccccc1N)C(=O)O [Verbindung 3] (H-[2Abz]APE(X1)QEA-OH) | – | Anstieg der Fluoreszenz (Faktor XIII [3]): Ergebnis: kein Anstieg der Fluoreszenz |
| DNS-Ahx-Asn-Glu(CAD-DNP)-Glu-Gln-Val-Ser-Pro-Leu-Thr-Leu-Leu-Lys | nicht zu dem gewünschten Ergebnis | – |
| DNS-Ahx-Gln(CAD-DNP)-Glu-lle-Val-OH [Verbindung 1] | keine messbare Steigerung der Fluoreszenz | – |
| DNS-Ahx-Glu(CAD-DNP)-Glu-Gln-Val-Ser-Pro-Leu-Thr-Leu-Leu-Lys | nicht zu einer Verbesserung | – |
